Assay results: PMC4527344 (Tetrahedron letters, 2015)
Values after ≈ are worked out from the molar mass of the structure shown. Read-outs that look alike come from different tables or passages of the source.

How the values were obtained:
[1] = system: M. tuberculosis H37Rv; assay type: cell-based, Mycobacterium tuberculosis
[2] = system: M. tuberculosis; assay: metabolomics: intramycobacterial accumulation and metabolism; assay type: cell-based, Mycobacterium tuberculosis; conditions: dose-dependent
[3] = Middlebrook 7H9 media supplemented with albumin, dextrose, and saline
[4] = system: M. tuberculosis H37Rv; conditions: cited from earlier work
[5] = target: enoyl acyl-carrier protein reductase (InhA); conditions: InhA enzymatic activity; cited from earlier work

SMILES: CCOC(=O)CSc1nc(N)c2c3c(sc2n1)CC(C(C)(C)C)CC3 (stereo not drawn) [CD117]
- MIC [1]: 0.39 µg/mL (≈ 1.03 µM)
- permeation of the M. tuberculosis cell wall [2]: permeate the M. tuberculosis cell wall
- stability in growth media [3]: stable
- MIC ([4]; M. tuberculosis H37Rv lab strain, previously reported): 0.39 µg/mL
- MIC ([4]; M. tuberculosis H37Rv, 0.39 μg/mL expressed in μM): 1.0 µM
- IC50 [5]: 34 ± 6 µM
